Measured values as given in PubChem BioAssay (NCI).
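The compound was tested at five concentrations on cells cultured in 96-well plates, with a 48-hour exposure period. Abbreviation: GI50, concentration required for 50% inhibition of growth. TGI: total growth inhibition.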

Assays:
Assay in all cases: NCI-60 cell line screen, 48 h
786-0 renal = test system: 786-0 renal
A498 renal = test system: A498 renal
CAKI-1 renal = test system: CAKI-1 renal
HL-60(TB) leukemia = test system: HL-60(TB) leukemia
HOP-92 NSCLC = test system: HOP-92 NSCLC
MOLT-4 leukemia = test system: MOLT-4 leukemia
NCI-H226 lung = test system: NCI-H226 lung
PC-3 prostate = test system: PC-3 prostate
RPMI-8226 leukemia = test system: RPMI-8226 leukemia
SK-MEL-28 melanoma = test system: SK-MEL-28 melanoma
SNB-19 CNS = test system: SNB-19 CNS
UO-31 renal = test system: UO-31 renal

SMILES | TGI (786-0 renal) [µM] | TGI (A498 renal) [µM] | TGI (CAKI-1 renal) [µM] | TGI (HL-60(TB) leukemia) [µM] | TGI (HOP-92 NSCLC) [µM] | TGI (MOLT-4 leukemia) [µM] | TGI (NCI-H226 lung) [µM] | TGI (PC-3 prostate) [µM] | TGI (RPMI-8226 leukemia) [µM] | TGI (SK-MEL-28 melanoma) [µM] | TGI (SNB-19 CNS) [µM] | TGI (UO-31 renal) [µM] | GI50 (CAKI-1 renal) [µM] | GI50 (HL-60(TB) leukemia) [µM] | GI50 (HOP-92 NSCLC) [µM] | GI50 (MOLT-4 leukemia) [µM] | GI50 (NCI-H226 lung) [µM] | GI50 (RPMI-8226 leukemia) [µM]
Fc1ccc2c(c1)nc1n2C(c2c(Cl)cccc2Cl)SC1 (stereo unspecified) | 29.5 | 35.4 | 25 | 62.3 | 20 | 52.5 | 37.7 | 28.3 | 87.7 | 24.3 | 27.1 | 28.7 |  |  |  |  |  | 
CO[C@@]12C[C@@H](C)C3=CCC(C)=C3CC1=C(C)C(=O)O2 | > 100 | > 100 | > 100 | > 100 | > 100 | > 100 | > 100 | > 100 | > 100 | > 100 | > 100 | > 100 |  |  |  |  |  | 
CC(=O)Nc1sc(Br)cc1S(=O)(=O)c1ccc(Cl)cc1 | 92.3 | > 100 | > 100 | 63.4 | 59.5 | > 100 | 57.1 | 43.1 | > 100 | > 100 | > 100 | 83.1 |  |  |  |  |  | 
CCOC(=O)NC(Nc1ccc(C)cc1)(C(F)(F)F)C(F)(F)F | > 100 | > 100 |  | > 100 | > 100 | > 100 | > 100 | > 100 | > 100 | > 100 | > 100 | > 100 |  |  |  |  |  | 
O=S(=O)(O)CCCc1cccc2ccccc12 | > 100 | > 100 | > 100 | > 100 | > 100 | > 100 | > 100 | > 100 | > 100 | > 100 | > 100 | > 100 |  |  |  |  |  | 
O=C1Nc2cccc(Cl)c2/C1=C\c1c(Cl)nc2n1CCS2 | > 100 | > 100 | > 100 | > 100 | > 100 | > 100 |  | > 100 | > 100 | > 100 | > 100 | > 100 |  |  |  |  |  | 
Cc1[nH]c(=O)nc2nc3ccc(Cl)cc3c(NCCNCCO)c12 | 21.2 | 34.6 | 25.4 | > 100 | 24.2 | > 100 | 29.8 | 27.4 | > 100 | 31.8 | 21.4 | 20.7 |  |  |  |  |  | 
COC[C@@H](N=CC(C)(C)C)C(C)C | > 100 | > 100 | > 100 | > 100 | > 100 | > 100 | > 100 | > 100 | > 100 | > 100 | > 100 | > 100 |  |  |  |  |  | 
COc1cc(Nc2nc3ccccc3nc2C(=O)O)cc(OC)c1OC | > 100 | 82.5 | 76.4 | > 100 | 92.7 | > 100 | > 100 | > 100 | > 100 | > 100 | > 100 | > 100 |  |  |  |  |  | 
CN1C(=O)c2ccccc2OC12C=Cc1c(ccc3ccccc13)O2 (stereo unspecified) | 25.7 | 44.9 | 33.3 | 17.6 | 8.47 | 17.2 | 48.6 | 16.8 | > 71.9 | > 67.6 | > 59.4 | 35.8 |  |  |  |  |  | 
CCOC1(OCC)C2C=CC1C(COS(=O)(=O)c1ccc(C)cc1)C2COS(=O)(=O)c1ccc(C)cc1 (stereo unspecified) | > 100 | 54.9 |  | 42.4 | 48 | 99.3 | 91.1 | 74.6 |  | > 100 | > 100 | > 100 |  |  |  |  |  | 
Cn1c(=O)c2c(ncn2CCNC(CO)C(O)c2ccc([N+](=O)[O-])cc2)n(C)c1=O (stereo unspecified) | > 100 | > 100 | > 100 | > 100 | > 100 | > 100 | > 100 | > 100 | > 100 | > 100 | > 100 | > 100 |  |  |  |  |  | 
N#CC1C(=S)NC(c2ccccc2)=CC12CCCCC2 (stereo unspecified) | > 100 | 50.3 | > 100 | 52.1 | 55.3 | 53.2 | 77.4 | > 100 | 54.3 | 95.5 | > 100 | 72.1 |  |  |  |  |  | 
O=C(O)C(O)C(O)C(O)C(O)c1nc2ccccc2s1 (stereo unspecified) | 30.4 | 63.7 | 33.5 | 46 | 40.1 |  | 66.4 | 30 | 68.8 | 38 | 49.8 | 30.1 |  |  |  |  |  | 
Cc1c(O)ccc2c(O)c(NC(=O)c3ccc4c(c3)CCC(C)(C)O4)c(=O)oc12 | > 100 | > 100 | > 100 | > 100 | > 100 | > 100 | > 100 | > 100 | > 100 | > 100 | > 100 | > 100 |  |  |  |  |  | 
NS(=O)(=O)c1ccc(/C=C/c2ccc(O)c(O)c2)cc1 | > 100 | > 100 | > 100 | > 100 | 47.9 | 53.7 | 60.2 | 83.5 | 73.3 | 78.6 | > 100 | 35 | 29.1 | 16.3 | 15.8 | 12.8 | 14 | 9.16
C=CCn1c(N)c(C#N)c(C#N)c1-c1ccccc1 | > 100 | > 100 | > 100 | > 100 | > 100 | > 100 | > 100 | > 100 | > 100 |  | > 100 | > 100 |  |  |  |  |  | 
O=c1[nH]nnc2c1sc1ncccc12 | > 100 | > 100 | > 100 | > 100 | > 100 | > 100 | > 100 | > 100 |  | > 100 | > 100 | > 100 |  |  |  |  |  | 
COc1cccc(CCNC(=O)Cc2ccccc2CCO)c1 | > 100 | > 100 | > 100 | > 100 | > 100 | > 100 | > 100 | > 100 |  | > 100 | > 100 | > 100 |  |  |  |  |  | 
